Experiment [1] concerns the target T1, Lysine demethylase 4C (KDM4C) (Homo sapiens, UniProt Q9H3R0).
T1 sequence (Q9H3R0 1-1056): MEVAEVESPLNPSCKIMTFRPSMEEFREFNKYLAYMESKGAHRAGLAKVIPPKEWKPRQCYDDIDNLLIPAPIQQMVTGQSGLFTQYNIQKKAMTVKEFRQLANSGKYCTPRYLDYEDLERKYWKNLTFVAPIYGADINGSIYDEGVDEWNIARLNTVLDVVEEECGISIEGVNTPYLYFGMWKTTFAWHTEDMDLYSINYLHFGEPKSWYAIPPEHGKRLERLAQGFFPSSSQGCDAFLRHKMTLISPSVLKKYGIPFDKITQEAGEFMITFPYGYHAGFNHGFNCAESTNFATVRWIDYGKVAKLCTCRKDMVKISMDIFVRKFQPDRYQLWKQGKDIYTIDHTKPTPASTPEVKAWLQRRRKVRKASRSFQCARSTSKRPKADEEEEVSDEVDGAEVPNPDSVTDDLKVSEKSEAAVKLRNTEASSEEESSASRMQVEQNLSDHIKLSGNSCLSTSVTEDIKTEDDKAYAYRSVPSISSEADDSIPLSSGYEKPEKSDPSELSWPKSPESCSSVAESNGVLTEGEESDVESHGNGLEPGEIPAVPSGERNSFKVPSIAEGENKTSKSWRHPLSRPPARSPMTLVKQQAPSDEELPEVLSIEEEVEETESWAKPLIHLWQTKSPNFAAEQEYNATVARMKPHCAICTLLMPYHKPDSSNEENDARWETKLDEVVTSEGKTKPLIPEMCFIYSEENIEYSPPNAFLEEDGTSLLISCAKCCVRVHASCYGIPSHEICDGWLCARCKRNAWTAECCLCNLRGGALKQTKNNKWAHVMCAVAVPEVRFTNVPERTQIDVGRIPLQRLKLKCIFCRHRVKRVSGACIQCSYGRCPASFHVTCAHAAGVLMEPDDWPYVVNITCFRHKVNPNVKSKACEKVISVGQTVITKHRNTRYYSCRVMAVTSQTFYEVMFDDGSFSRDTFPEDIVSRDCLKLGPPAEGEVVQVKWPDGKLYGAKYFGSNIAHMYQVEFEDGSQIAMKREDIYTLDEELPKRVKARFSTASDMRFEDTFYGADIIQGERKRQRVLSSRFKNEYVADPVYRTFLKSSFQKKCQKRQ
Briefly: Enzyme activity assay (SAMDI-MS), KDM4C. In kind it is biochemical. The conditions noted are these: 10 concentrations, 5 nM to 100 μM, compounds incubated with enzyme 30 min, result in words. As to the method:
(§1) Enzyme screens were performed by SAMDI Tech (contract research organization); enzyme assays were performed in a 20 μL volume in 384-well low-volume polypropylene microtiter plates (Greiner Bio-One) at room temperature. The enzymes [Arginase 1 (ARG1), Lysine demethylase 4C (KDM4C), MAP/microtubule affinity-regulating kinase 4 (MARK4), Histone-Lysine N-methyltransferase (NSD2), Tyrosine-protein phosphatase non-receptor type 1 (PTP1B), and Sirtuin-3 (SIRT3)] were incubated with compounds for 30 min prior to initiation of the reaction by the addition of substrate and cofactors (if required). Reactions were quenched by the addition of 0.5% formic acid (final) with subsequent neutralization using 1% sodium bicarbonate (final). For SAMDI MS analysis, 2 μL of each reaction was transferred using a 384-channel automated liquid handler to SAMDI biochip arrays functionalized with a neutravidin-presenting self-assembled monolayer. The preparation of SAMDI biochip arrays has been previously described ([41], [42], [49]). The SAMDI arrays were incubated for 1 h in a humidified chamber to allow specific immobilization of the biotinylated substrates and products; they were then purified by washing with ultrafiltered water (50 μL/spot) and dried with compressed air. A matrix comprising α-Cyano-4-hydroxycinnamic acid in 80% acetonitrile: 20% aqueous ammonium citrate (10 mg/mL final) was applied in an automated format by dispensing 50 nL to each spot in the array. SAMDI MS was performed using reflector positive mode on an AB Sciex TOF-TOF 5800 System (AB Sciex, Framingham, MA) with 400 shots/spot analyzed in a random raster sampling. For data analysis, the area under the curves (AUCs) for the product peak and substrate peak were calculated using the TOF/TOF Series Explorer (AB Sciex), and the amount of product formed was calculated using the equation AUC product / (AUC product + AUC Substrate). Negative controls were pre-quenched with 0.5% formic acid (final). Lysozyme assay was performed using the manufacturer’s instructions (Biovision Lysozyme inhibitor screening kit K237). Flavonoids were acquired from Sigma-Aldrich and Seleckchem.
IC50 values of enzyme inhibition. Inhibition of the enzymes was measured at 10 concentration values in the range of 5 nM to 100 μM for each compound and enzyme, with two technical replicates; the percent inhibition values were determined by SAMDI software. Sigmoidal curves were fitted to the percent inhibition vs log10 (concentration) series, and IC50 values were determined at the crossing point of 50 % inhibition. Manual verification of the fits and the IC50 values was performed. The resulting IC50 values fell into the following categories: (a) within the assayed range of 5nM to 100μM (26 % of fits), (b) IC50 could be extrapolated, IC50 > 100μM (12 % of fits), or (c) fitting was not possible because all values were at baseline (62 % of fits). Compound efficacy ranking. First, for each IC50 value per compound and enzyme, a Z-score was calculated based on the log10 (IC50) value and that of the compounds that produced a successful readout for enzyme i , according to Equation 1: […]

In experiment [2] the target is T2, Tyrosine-protein phosphatase non-receptor type 1 (PTP1B) (Homo sapiens, UniProt P18031).
T2 sequence (P18031 1-435): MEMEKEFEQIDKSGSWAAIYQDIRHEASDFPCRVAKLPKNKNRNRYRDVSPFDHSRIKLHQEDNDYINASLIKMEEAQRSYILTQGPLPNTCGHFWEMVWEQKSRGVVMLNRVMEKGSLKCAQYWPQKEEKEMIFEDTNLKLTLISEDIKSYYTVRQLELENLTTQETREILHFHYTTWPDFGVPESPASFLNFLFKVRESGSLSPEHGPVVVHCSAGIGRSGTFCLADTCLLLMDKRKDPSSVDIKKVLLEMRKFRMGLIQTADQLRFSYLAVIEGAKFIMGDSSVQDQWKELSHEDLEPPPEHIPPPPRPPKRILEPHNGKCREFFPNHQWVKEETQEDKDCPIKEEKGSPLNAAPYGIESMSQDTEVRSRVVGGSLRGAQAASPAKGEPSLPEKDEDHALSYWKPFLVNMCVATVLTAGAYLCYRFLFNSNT
Briefly: Enzyme activity assay (SAMDI-MS), PTP1B. In kind it is biochemical. The conditions noted are these: 10 concentrations, 5 nM to 100 μM, compounds incubated with enzyme 30 min, result in words. As to the method:
as §1
IC50 values of enzyme inhibition. Inhibition of the enzymes was measured at 10 concentration values in the range of 5 nM to 100 μM for each compound and enzyme, with two technical replicates; the percent inhibition values were determined by SAMDI software. Sigmoidal curves were fitted to the percent inhibition vs log10 (concentration) series, and IC50 values were determined at the crossing point of 50 % inhibition. […] First, for each IC50 value per compound and enzyme, a Z-score was calculated based on the log10 (IC50) value and that of the compounds that produced a successful readout for enzyme i , according to Equation 1: […]

On to `O=c1c(O[C@@H]2O[C@H](CO)[C@@H](O)[C@H](O)[C@H]2O)c(-c2ccc(O)c(O)c2)oc2cc(O)cc(O)c12` [isoquercitrin], for which the “inhibition of enzyme activity, KDM4C” value in experiment [1] is reported as “blocked”. The “inhibition of enzyme activity, PTP1B” value in experiment [2] was “not”.
Consider `O=c1c(O)c(-c2ccc(O)c(O)c2)oc2cc(O)cc(O)c12` [quercetin], for which the “inhibition of enzyme activity, KDM4C” value is “blocked” in experiment [1], “inhibited” in experiment [1] (listed as Quercetin) and “concentration-dependent inhibition” in experiment [1] (listed as Quercitin). Further, the “inhibition of enzyme activity, PTP1B” value in experiment [2] (listed as Quercetin) is listed as “inhibited”; in experiment [2] (listed as Quercitin), “concentration-dependent inhibition”.
In the case of `C[C@@H]1O[C@@H](Oc2c(-c3ccc(O)c(O)c3)oc3cc(O)cc(O)c3c2=O)[C@H](O)[C@H](O)[C@H]1O` [quercitrin], the “inhibition of enzyme activity, KDM4C” value in experiment [1] is recorded as “blocked”. For the same molecule, the “inhibition of enzyme activity, PTP1B” value in experiment [2] is recorded as “did not affect”.

(Values after publication PMC12439166, “Dietary flavonoids form supramolecular assemblies, alter biochemistry, and enhance cell resilience” (Frontiers in Nutrition, 2025).)
